Test results from ChEMBL document CHEMBL3044870, “Effect of clomazone on various market classes of dry beans” (Crop Prot, 2007).

Columns and labels:
Assay type in all cases: organism-based
Settings in all cases: in vivo, other
Phaseolus vulgaris [1] = experiment: Phytotoxicity against Phaseolus vulgaris (kidney beans) assessed as visual crop injury at 2232 g a.i./ha applied pre-emergence 1 to 2 days post-planting measured on day 14 post-emergence relative to control
Phaseolus vulgaris [2] = experiment: Phytotoxicity against Phaseolus vulgaris (kidney beans) assessed as plant height at 1116 g a.i./ha applied pre-emergence 1 to 2 days post-planting measured on day 28 post-emergence (reference value: 37 cm)
Phaseolus vulgaris [3] = experiment: Phytotoxicity against Phaseolus vulgaris (black beans) assessed as visual crop injury at 2232 g a.i./ha applied pre-emergence 1 to 2 days post-planting measured on day 14 post-emergence relative to control
Phaseolus vulgaris [4] = experiment: Phytotoxicity against Phaseolus vulgaris (otebo beans) assessed as plant height at 2232 g a.i./ha applied pre-emergence 1 to 2 days post-planting measured on day 28 post-emergence (reference value: 38 cm)
Phaseolus vulgaris [5] = experiment: Phytotoxicity against Phaseolus vulgaris (white beans) assessed as visual crop injury at 2232 g a.i./ha applied pre-emergence 1 to 2 days post-planting measured on day 14 post-emergence relative to control
Phaseolus vulgaris [6] = experiment: Phytotoxicity against Phaseolus vulgaris (yellow eye beans) assessed as plant height at 2232 g a.i./ha applied pre-emergence 1 to 2 days post-planting measured on day 28 post-emergence (reference value: 38 cm)
Phaseolus vulgaris [7] = experiment: Phytotoxicity against Phaseolus vulgaris (dry beans) assessed as visual crop injury at 2232 g a.i./ha applied pre-emergence 1 to 2 days post-planting measured on day 7 post-emergence relative to control
Phaseolus vulgaris [8] = experiment: Phytotoxicity against Phaseolus vulgaris (pinto beans) assessed as yield at 1116 g a.i./ha applied pre-emergence 1 to 2 days post-planting measured on day 42 post-emergence (reference value: 3.1 tons/ha)
Phaseolus vulgaris [9] = experiment: Phytotoxicity against Phaseolus vulgaris (dry beans) assessed as visual crop injury at 1116 g a.i./ha applied pre-emergence 1 to 2 days post-planting measured on day 14 post-emergence relative to control
Phaseolus vulgaris [10] = experiment: Phytotoxicity against Phaseolus vulgaris (pinto beans) assessed as shoot dry weight at 1116 g a.i./ha applied pre-emergence 1 to 2 days post-planting measured on day 42 post-emergence (reference value: 168 g/m)
Phaseolus vulgaris [11] = experiment: Phytotoxicity against Phaseolus vulgaris (black beans) assessed as shoot dry weight at 2232 g a.i./ha applied pre-emergence 1 to 2 days post-planting measured on day 42 post-emergence (reference value: 165 g/m)
Phaseolus vulgaris [12] = experiment: Phytotoxicity against Phaseolus vulgaris (brown beans) assessed as visual crop injury at 2232 g a.i./ha applied pre-emergence 1 to 2 days post-planting measured on day 14 post-emergence relative to control
Phaseolus vulgaris [13] = experiment: Phytotoxicity against Phaseolus vulgaris (otebo beans) assessed as shoot dry weight at 1116 g a.i./ha applied pre-emergence 1 to 2 days post-planting measured on day 42 post-emergence (reference value: 188 g/m)
Phaseolus vulgaris [14] = experiment: Phytotoxicity against Phaseolus vulgaris (brown beans) assessed as shoot dry weight at 2232 g a.i./ha applied pre-emergence 1 to 2 days post-planting measured on day 42 post-emergence (reference value: 149 g/m)
Phaseolus vulgaris [15] = experiment: Phytotoxicity against Phaseolus vulgaris (cranberry beans) assessed as visual crop injury at 1116 g a.i./ha applied pre-emergence 1 to 2 days post-planting measured on day 14 post-emergence relative to control
Phaseolus vulgaris [16] = experiment: Phytotoxicity against Phaseolus vulgaris (kidney beans) assessed as yield at 2232 g a.i./ha applied pre-emergence 1 to 2 days post-planting measured on day 42 post-emergence (reference value: 2.3 tons/ha)
Phaseolus vulgaris [17] = experiment: Phytotoxicity against Phaseolus vulgaris (kidney beans) assessed as yield at 1116 g a.i./ha applied pre-emergence 1 to 2 days post-planting measured on day 42 post-emergence (reference value: 2.3 tons/ha)
Phaseolus vulgaris [18] = experiment: Phytotoxicity against Phaseolus vulgaris (otebo beans) assessed as yield at 1116 g a.i./ha applied pre-emergence 1 to 2 days post-planting measured on day 42 post-emergence (reference value: 3.4 tons/ha)
Phaseolus vulgaris [19] = experiment: Phytotoxicity against Phaseolus vulgaris (white beans) assessed as yield at 1116 g a.i./ha applied pre-emergence 1 to 2 days post-planting measured on day 42 post-emergence (reference value: 3 tons/ha)
Phaseolus vulgaris [20] = experiment: Phytotoxicity against Phaseolus vulgaris (kidney beans) assessed as shoot dry weight at 1116 g a.i./ha applied pre-emergence 1 to 2 days post-planting measured on day 42 post-emergence (reference value: 145 g/m)
Phaseolus vulgaris [21] = experiment: Phytotoxicity against Phaseolus vulgaris (white beans) assessed as yield at 2232 g a.i./ha applied pre-emergence 1 to 2 days post-planting measured on day 42 post-emergence (reference value: 3 tons/ha)
Phaseolus vulgaris [22] = experiment: Phytotoxicity against Phaseolus vulgaris (brown beans) assessed as shoot dry weight at 1116 g a.i./ha applied pre-emergence 1 to 2 days post-planting measured on day 42 post-emergence (reference value: 149 g/m)
Phaseolus vulgaris [23] = experiment: Phytotoxicity against Phaseolus vulgaris (white beans) assessed as shoot dry weight at 1116 g a.i./ha applied pre-emergence 1 to 2 days post-planting measured on day 42 post-emergence (reference value: 175 g/m)
Phaseolus vulgaris [24] = experiment: Phytotoxicity against Phaseolus vulgaris (yellow eye beans) assessed as visual crop injury at 1116 g a.i./ha applied pre-emergence 1 to 2 days post-planting measured on day 14 post-emergence relative to control
Phaseolus vulgaris [25] = experiment: Phytotoxicity against Phaseolus vulgaris (cranberry beans) assessed as plant height at 2232 g a.i./ha applied pre-emergence 1 to 2 days post-planting measured on day 28 post-emergence (reference value: 37 cm)
Phaseolus vulgaris [26] = experiment: Phytotoxicity against Phaseolus vulgaris (yellow eye beans) assessed as yield at 1116 g a.i./ha applied pre-emergence 1 to 2 days post-planting measured on day 42 post-emergence (reference value: 2.3 tons/ha)
Phaseolus vulgaris [27] = experiment: Phytotoxicity against Phaseolus vulgaris (pinto beans) assessed as shoot dry weight at 2232 g a.i./ha applied pre-emergence 1 to 2 days post-planting measured on day 42 post-emergence (reference value: 168 g/m)
Phaseolus vulgaris [28] = experiment: Phytotoxicity against Phaseolus vulgaris (brown beans) assessed as visual crop injury at 1116 g a.i./ha applied pre-emergence 1 to 2 days post-planting measured on day 14 post-emergence relative to control
Phaseolus vulgaris [29] = experiment: Phytotoxicity against Phaseolus vulgaris (dry beans) assessed as visual crop injury at 2232 g a.i./ha applied pre-emergence 1 to 2 days post-planting measured on day 14 post-emergence relative to control
Phaseolus vulgaris [30] = experiment: Phytotoxicity against Phaseolus vulgaris (otebo beans) assessed as yield at 2232 g a.i./ha applied pre-emergence 1 to 2 days post-planting measured on day 42 post-emergence (reference value: 3.4 tons/ha)
Phaseolus vulgaris [31] = experiment: Phytotoxicity against Phaseolus vulgaris (pinto beans) assessed as yield at 2232 g a.i./ha applied pre-emergence 1 to 2 days post-planting measured on day 42 post-emergence (reference value: 3.1 tons/ha)
Phaseolus vulgaris [32] = experiment: Phytotoxicity against Phaseolus vulgaris (dry beans) assessed as visual crop injury at 1116 g a.i./ha applied pre-emergence 1 to 2 days post-planting measured on day 28 post-emergence relative to control

## CC1(C)CON(Cc2ccccc2Cl)C1=O [CLOMAZONE]
Phaseolus vulgaris [1]
  Activity: 10%
Phaseolus vulgaris [2]
  Activity: 35 cm
Phaseolus vulgaris [3]
  Activity: 13%
Phaseolus vulgaris [4]
  Activity: 34 cm
Phaseolus vulgaris [5]
  Activity: 6%
Phaseolus vulgaris [6]
  Activity: 32 cm
Phaseolus vulgaris [7]
  Activity: 11%
Phaseolus vulgaris [8]
  Crop_yield: 3.1 tons/ha
Phaseolus vulgaris [9]
  Activity: 4%
Phaseolus vulgaris [10]
  Activity: 166 g/m
Phaseolus vulgaris [11]
  Activity: 150 g/m
Phaseolus vulgaris [12]
  Activity: 8%
Phaseolus vulgaris [13]
  Activity: 189 g/m
Phaseolus vulgaris [14]
  Activity: 143 g/m
Phaseolus vulgaris [15]
  Activity: 6%
Phaseolus vulgaris [16]
  Crop_yield: 2.3 tons/ha
Phaseolus vulgaris [17]
  Crop_yield: 2.3 tons/ha
Phaseolus vulgaris [18]
  Crop_yield: 3.4 tons/ha
Phaseolus vulgaris [19]
  Crop_yield: 3.1 tons/ha
Phaseolus vulgaris [20]
  Activity: 142 g/m
Phaseolus vulgaris [21]
  Crop_yield: 3.2 tons/ha
Phaseolus vulgaris [22]
  Activity: 139 g/m
Phaseolus vulgaris [23]
  Activity: 174 g/m
Phaseolus vulgaris [24]
  Activity: 6%
Phaseolus vulgaris [25]
  Activity: 32 cm
Phaseolus vulgaris [26]
  Crop_yield: 2.6 tons/ha
Phaseolus vulgaris [27]
  Activity: 146 g/m
Phaseolus vulgaris [28]
  Activity: 3%
Phaseolus vulgaris [29]
  Activity: 10%
Phaseolus vulgaris [30]
  Crop_yield: 3.2 tons/ha
Phaseolus vulgaris [31]
  Crop_yield: 3 tons/ha
Phaseolus vulgaris [32]
  Activity: 1%
